≈ marks a conversion by molar mass, not a printed value. Like-named read-outs stand apart in the source and are kept apart here.
Columns and labels:
Format in all cases: cell-based
E. coli MP-9 ΔTolC = test: MIC against E. coli MP-9 ΔTolC; conditions: Escherichia coli
[1] = tested on: S. aureus UNT96, NRS710, MP-618 (USA100, Erythro > 8); test: microbe, parasite or virus in culture; conditions: Staphylococcus aureus
[2] = tested on: S. aureus MP-549 msr(a) USA 300; test: MIC against S. aureus MP-549 msr(a) USA 300; conditions: Staphylococcus aureus, USA300, S. aureus MP-549 msr(a) USA 300
S. pneumoniae ATCC 49619 = test: MIC against S. pneumoniae ATCC 49619; conditions: Streptococcus pneumoniae, ATCC49619; S. pneumoniae ATCC 49619; read-out: MIC
K. pneumoniae ATCC 10031 = test: MIC against K. pneumoniae ATCC 10031; conditions: Klebsiella pneumoniae, ATCC10031
P. aeruginosa ATCC 27853 = test: MIC against P. aeruginosa ATCC 27853; conditions: Pseudomonas aeruginosa, ATCC27853
S. aureus ATCC 29213 = test: MIC against S. aureus ATCC 29213; conditions: Staphylococcus aureus
E. coli ATCC 25922 = test: MIC against E. coli ATCC 25922; conditions: Escherichia coli, ATCC25922
[3] = tested on: S. pyogenes UNT-014, MP-625 MacRes; test: MIC against S. pyogenes UNT-014, MP-625 MacRes; conditions: Streptococcus pyogenes
[4] = tested on: S. aureus MP-513 clinical cErm; test: MIC against S. aureus MP-513 clinical cErm; conditions: Staphylococcus aureus
[5] = tested on: S. pneumoniae UNT-039, MP-627, TP1517 (mefA); test: MIC against S. pneumoniae UNT-039, MP-627, TP1517 (mefA); conditions: Streptococcus pneumoniae
[6] = tested on: S. aureus UNT-146, MP-620, TP 506 (ermA); test: microbe, parasite or virus in culture; conditions: Staphylococcus aureus
E. faecalis UNT-047 VRE = test: microbe, parasite or virus in culture; conditions: Enterococcus faecalis
[7] = tested on: S. aureus UNT-120, MP-619, NR522 (USA 600, GISA); test: microbe, parasite or virus in culture; conditions: Staphylococcus aureus, USA600
S. aureus BAA 977 iErmA = test: MIC against S. aureus BAA 977 iErmA; conditions: Staphylococcus aureus, BAA977
E. faecalis ATCC 29212 = test: MIC against E. faecalis ATCC 29212; conditions: Enterococcus faecalis, ATCC29212
H. influenzae ATCC 49247 = test: MIC against H. influenzae ATCC 49247; conditions: Haemophilus influenzae, ATCC49247
[8] = tested on: E. faecalis MMX 847 Macrolide-Resistant; test: MIC against E. faecalis MMX 847 Macrolide-Resistant; conditions: Enterococcus faecalis
C. difficile BAA 1805 = test: MIC against C. difficile BAA 1805; conditions: Clostridioides difficile, BAA1805
[9] = tested on: S. pneumoniae MMX 3028 cErmB; test: MIC against S. pneumoniae MMX 3028 cErmB; conditions: Streptococcus pneumoniae, MMX3028CERMB
[10] = tested on: E. coli MMX TolC parent strain; test: MIC against E. coli MMX TolC parent strain; conditions: Escherichia coli
[11] = tested on: P. aeruginosa MMX Mex parent strain; test: MIC against P. aeruginosa MMX Mex parent strain; conditions: Pseudomonas aeruginosa
[12] = tested on: P. aeruginosa MMX 3476 Δmex; test: MIC against P. aeruginosa MMX 3476 Δmex; conditions: Pseudomonas aeruginosa
S. pyogenes ATCC 19615 = test: MIC against S. pyogenes ATCC 19615; conditions: Streptococcus pyogenes, ATCC19615; S. pyogenes ATCC 19615; read-out: MIC
S. aureus MMX 3035 cErmA = test: MIC against S. aureus MMX 3035 cErmA; conditions: Staphylococcus aureus, MMX3035CERMA
[13] = tested on: S. aureus Micromyx USA 300; test: MIC against S. aureus Micromyx USA 300; conditions: Staphylococcus aureus, USA300
E. coli MMX 0121 ΔTolC = test: MIC against E. coli MMX 0121 ΔTolC; conditions: Escherichia coli
B. fragilis ATCC 25285 = test: MIC against B. fragilis ATCC 25285; conditions: Bacteroides fragilis, ATCC25285
[14] = tested on: S. pyogenes MMX 946 Macrolide-Resistant; test: MIC against S. pyogenes MMX 946 Macrolide-Resistant; conditions: Streptococcus pyogenes
E. coli ATCC 15922 = test: MIC against E. coli ATCC 15922; conditions: Escherichia coli, ATCC15922
[15] = tested on: S. pneumoniae MMX 3031 cMefA; test: MIC against S. pneumoniae MMX 3031 cMefA; conditions: Streptococcus pneumoniae, MMX3031CMEFA

CSC1O[C@H]([C@H](NC(=O)[C@H]2NC[C@@H]3C[C@H]4OC(C)(C)O[C@H]4CO[C@H]32)[C@H](C)Cl)C(O)[C@@H](O)[C@H]1O (some centres unmarked) [FSA-501099]
MIC (E. coli MP-9 ΔTolC): > 64 µg/mL | MIC [1]: > 64 µg/mL | MIC [2]: > 64 µg/mL | MIC (S. pneumoniae ATCC 49619): 8 µg/mL (≈ 15.7 µM) | MIC (K. pneumoniae ATCC 10031): > 64 µg/mL | MIC (P. aeruginosa ATCC 27853): > 64 µg/mL | MIC (S. aureus ATCC 29213; ATCC29213): > 64 µg/mL | MIC (E. coli ATCC 25922): > 64 µg/mL | MIC [3]: 32 µg/mL (≈ 62.6 µM) | MIC [4]: > 64 µg/mL | MIC [5]: 2 µg/mL (≈ 3.91 µM) | MIC [6]: > 64 µg/mL | MIC (E. faecalis UNT-047 VRE): > 64 µg/mL | MIC [7]: > 64 µg/mL | MIC (S. aureus BAA 977 iErmA): > 64 µg/mL | MIC (E. faecalis ATCC 29212): > 64 µg/mL

Cc1ccc(S(=O)(=O)OCC2O[C@H]([C@H](NC(=O)[C@H]3NC[C@@H]4CC=CCO[C@H]43)[C@@H](C)O)C(O)[C@@H](O)[C@H]2O)cc1 (some centres unmarked) [FSA-211030]
MIC (H. influenzae ATCC 49247): > 64 µg/mL | MIC [8]: > 64 µg/mL | MIC (C. difficile BAA 1805): > 64 µg/mL | MIC [9]: > 64 µg/mL | MIC [10]: > 64 µg/mL | MIC (P. aeruginosa ATCC 27853): > 64 µg/mL | MIC (S. aureus ATCC 29213; ATCC29213): > 64 µg/mL | MIC (E. coli ATCC 25922): > 64 µg/mL | MIC [11]: > 64 µg/mL | MIC [12]: > 64 µg/mL | MIC (S. pyogenes ATCC 19615): 1 µg/mL (≈ 1.8 µM) | MIC (S. aureus MMX 3035 cErmA): > 64 µg/mL | MIC [13]: > 64 µg/mL | MIC (E. coli MMX 0121 ΔTolC): > 64 µg/mL | MIC (S. aureus BAA 977 iErmA): > 64 µg/mL | MIC (E. faecalis ATCC 29212): > 64 µg/mL | MIC (B. fragilis ATCC 25285): > 64 µg/mL | MIC [14]: > 64 µg/mL

CSC1O[C@H]([C@H](NC(=O)[C@H]2NC[C@@H]3CC=CCO[C@H]32)[C@H](C)Sc2ccc(-c3cncnc3)cc2)C(O)[C@@H](O)[C@H]1O (some centres unmarked) [FSA-27049]
MIC [8]: > 64 µg/mL | MIC (S. pneumoniae ATCC 49619): ≤ 0.06 µg/mL | MIC (C. difficile BAA 1805; C. difficile BAA 1805, read-out: MIC): 1 µg/mL (≈ 1.7 µM) | MIC (E. coli ATCC 15922): > 64 µg/mL | MIC ([9]; S. pneumoniae MMX 3028 cErmB, read-out: MIC): 39 µg/mL (≈ 66.2 µM) | MIC [10]: > 64 µg/mL | MIC (P. aeruginosa ATCC 27853): > 64 µg/mL | MIC (S. aureus ATCC 29213; ATCC29213, S. aureus ATCC 29213, read-out: MIC): 1 µg/mL (≈ 1.7 µM) | MIC [4]: > 64 µg/mL | MIC [11]: > 64 µg/mL | MIC [15]: ≤ 0.06 µg/mL | MIC [12]: > 64 µg/mL | MIC (S. pyogenes ATCC 19615): ≤ 0.06 µg/mL | MIC (S. aureus MMX 3035 cErmA): > 64 µg/mL | MIC ([13]; S. aureus Micromyx USA 300, read-out: MIC): 1 µg/mL (≈ 1.7 µM) | MIC (E. coli MMX 0121 ΔTolC): 8 µg/mL (≈ 13.6 µM) | MIC (S. aureus BAA 977 iErmA): 2 µg/mL (≈ 3.4 µM) | MIC (B. fragilis ATCC 25285): > 64 µg/mL | MIC ([14]; S. pyogenes MMX 946 Macrolide-Resistant (MacRes), read-out: MIC): 2 µg/mL (≈ 3.4 µM)
